Assays:
[1] = test system: F. nucleatum conditioned medium (F.n. C.M.); experiment: Fluorescence reaction in F. nucleatum conditioned medium; details: compared to the basic TSB media
Source text: (§1) Specifically, P. gingivalis is known to secrete gingipain (Kgp, Rgp) and outer membrane vesicles (OMVs) (FIG. 1A). Causative bacteria of periodontitis, i.e., P. gingivalis, F. nucleatum, and A. actinomycetecomitans, were observed using a scanning electron microscope (SEM) (FIG. 1B). Afterward, the conditioned media (C.M.) were isolated (FIG. 1C).
(§2) Therefore, the present inventors screened 24 types of thiol-reactive fluorescent compound libraries using the conditioned media. Here, four types of thiol-reactive MitoTrackers were used as control materials.
(§3) After culturing living P. gingivalis, F. nucleatum, and A. actinomycetecomitans with the fluorescent compound DTC630, and MitoTracker™ Red, cell-specific fluorescence reactions were compared.

[2] = test system: A. actinomycetecomitans conditioned medium (A.a C.M.); experiment: Fluorescence reaction in A. actinomycetecomitans conditioned medium; details: compared to the basic TSB media
Source text: as §1, §2, §3

[3] = test system: P. gingivalis conditioned medium (P.g. C.M.); design: species or system Porphyromonas gingivalis; details: for increase in fluorescence in the P. gingivalis conditioned medium (P.g. C.M.): compared to the basic TSB media
Source text: as §1, §2, §3

trypsin = experiment: Fluorescence spectrum after culture with trypsin; format: binding, human; details: 10 μM, λex=425 nm; for detection of trypsin (fluorescence compared to PBS), in words: λem=450-700 nm
Protocol: (§4) Specifically, after the gingipains (Kgp and Rgp) secreted from P. gingivalis, calpain, which is a cysteine protease, and trypsin, which is a serine protease, were cultured with fluorescent compound DTC630 (10 μM), a fluorescence spectrum was measured (λex=425 nm, λem=450-700 nm).
(§5) In addition, the degree of fluorescence reaction of fluorescent compound DTC630 (1, 3, 10, 30, and 100 μM) was measured at each concentration for Kgp, Rgp, calpain, and trypsin (final concentration: 0.3 mg/mL).

Kgp = experiment: Fluorescence spectrum after culture with Kgp; format: binding, P. gingivalis; details: 10 μM, λex=425 nm; for detection of Kgp (fluorescence compared to PBS), in words: λem=450-700 nm
Protocol: as §4, §5

Rgp = Rgp (Porphyromonas gingivalis, UniProt P28784); experiment: Fluorescence spectrum after culture with Rgp; format: binding, P. gingivalis; details: 10 μM, λex=425 nm; for detection of Rgp (fluorescence compared to PBS), in words: λem=450-700 nm
Chain of Rgp (P28784 228-991): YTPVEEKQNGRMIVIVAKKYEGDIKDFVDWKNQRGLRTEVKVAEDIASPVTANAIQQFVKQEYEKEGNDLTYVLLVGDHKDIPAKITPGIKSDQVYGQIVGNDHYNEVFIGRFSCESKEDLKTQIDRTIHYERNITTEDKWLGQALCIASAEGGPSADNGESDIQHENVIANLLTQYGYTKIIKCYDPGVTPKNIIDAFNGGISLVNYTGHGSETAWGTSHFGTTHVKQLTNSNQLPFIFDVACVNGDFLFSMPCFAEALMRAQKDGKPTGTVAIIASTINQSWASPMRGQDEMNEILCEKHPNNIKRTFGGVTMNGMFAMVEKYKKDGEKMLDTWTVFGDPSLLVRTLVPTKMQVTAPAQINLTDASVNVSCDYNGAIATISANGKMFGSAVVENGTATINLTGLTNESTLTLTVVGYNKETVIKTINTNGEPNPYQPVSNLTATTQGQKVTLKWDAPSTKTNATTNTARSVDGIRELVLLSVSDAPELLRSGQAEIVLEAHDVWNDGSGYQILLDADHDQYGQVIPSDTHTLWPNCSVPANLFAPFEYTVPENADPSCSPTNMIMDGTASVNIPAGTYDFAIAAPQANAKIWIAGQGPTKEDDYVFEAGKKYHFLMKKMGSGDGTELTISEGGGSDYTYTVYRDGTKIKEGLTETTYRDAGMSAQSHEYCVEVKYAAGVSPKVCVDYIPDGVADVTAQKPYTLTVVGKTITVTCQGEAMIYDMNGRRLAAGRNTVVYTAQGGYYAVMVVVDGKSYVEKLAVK
Protocol: as §4, §5

calpain = experiment: Fluorescence spectrum after culture with calpain; format: binding, human; details: 10 μM, λex=425 nm; for detection of calpain (fluorescence compared to PBS), in words: λem=450-700 nm
Protocol: as §4, §5

## CN(C)c1ccc(-c2ccc(/C=C(\C#N)c3nnn[nH]3)cc2)cc1 [DTC630, (E)-3-(4′-(dimethylamino)-[1,1′-biphenyl]-4-yl)-2-(1H-tetrazol-5-yl) acrylonitrile]
[1]
  increase in fluorescence in the F. nucleatum conditioned medium (F.n. C.M.): 1.6±0.1 fold
[2]
  increase in fluorescence in the A. actinomycetecomitans conditioned medium (A.a C.M.): 1.5±0.1 fold
[3]
  increase in fluorescence in the P. gingivalis conditioned medium (P.g. C.M.): 6.2±0.2 fold

## CN(C)c1ccc(-c2ccc(C=C(C#N)C#N)cc2)cc1 [DTC2352, 2-((4′-(dimethylamino)-[1,1′-biphenyl]-4-yl)methylene)malononitrile]
trypsin
  detection of trypsin (fluorescence compared to PBS), in words: no increase in fluorescence
[3]; fluorescence magnification for TSB medium, screen of 24 thiol-reactive fluorescent compounds
  selectivity of fluorescence reaction for P. gingivalis conditioned medium (library screen heatmap): does not exhibit a P. gingivalis-selective fluorescence reaction
Kgp
  fluorescence increase for Kgp compared to PBS: 3±0 fold
  detection of Kgp (fluorescence compared to PBS), in words: no increase in fluorescence
Rgp
  detection of Rgp (fluorescence compared to PBS), in words: no increase in fluorescence
calpain
  detection of calpain (fluorescence compared to PBS), in words: no increase in fluorescence

## ClCc1ccc(C2=c3cc4c5c(c3Oc3c2cc2c6c3CCCN6CCC2)CCC[N+]=5CCC4)cc1.[Cl-] [MitoTracker™ Red]
[1]
  increase in fluorescence in the F. nucleatum conditioned medium (F.n. C.M.): 3.2±0.1 fold
trypsin
  fluorescence increase for trypsin compared to PBS: 93±9 fold
  detection of trypsin (fluorescence compared to PBS), in words: increase in fluorescence
[2]
  increase in fluorescence in the A. actinomycetecomitans conditioned medium (A.a C.M.): 4.5±0.1 fold
[3]
  increase in fluorescence in the P. gingivalis conditioned medium (P.g. C.M.): 5.6±0.6 fold
Kgp
  fluorescence increase for Kgp compared to PBS: 145±5 fold
  detection of Kgp (fluorescence compared to PBS), in words: increase in fluorescence
Rgp
  fluorescence increase for Rgp compared to PBS: 126±6 fold
  detection of Rgp (fluorescence compared to PBS), in words: increase in fluorescence
calpain
  fluorescence increase for calpain compared to PBS: 163±1 fold
  detection of calpain (fluorescence compared to PBS), in words: increase in fluorescence

— patent publication US20260219277A1, “NOVEL FLUORESCENT COMPOUND, AND COMPOSITION FOR DETECTING GINGIPAIN, COMPOSITION FOR DIAGNOSING PORPHYROMONAS GINGIVALIS INFECTION, OR ANTIBACTERIAL COMPOSITION AGAINST PORPHYROMONAS GINGIVALIS USING SAME” (priority 2023, published 2026)
